Assay results published in US20160271139A1, “METHOD FOR NON-TOXIC TREATMENT FOR DRUG WITHDRAWAL” (DEMERX, INC., priority 2013, published 2016).

Test system: dogs
Test: Single dose acute oral toxicity/TK study in dogs
Assay type: in vivo, dog

SMILES: CC[C@H]1C[C@H]2C[C@H]3c4[nH]c5ccc(O)cc5c4CCN(C2)[C@@H]13 [noribogaine]
- NOAEL: 5 mg/kg
- Findings at the NOAEL dose (5 mg/kg): only transient reduction in food consumption in one dog
- Clinical signs (10 mg/kg, beginning 20 minutes after dosing, persisting until 3 h 40 m post-dose): Convulsions and other CNS-related clinical signs
- Mortality (5 (n=2) or 10 (n=2) mg/kg): no mortality occurred
